Source: US20260034094A1, “COMPOSITIONS AND METHODS FOR INDUCING FERROPTOSIS” (Kojin Therapeutics, Inc., priority 2022, published 2026)

Key:
[1] = test system: RKN cells; assay: RKN cell profiling assay (cell viability, CellTiter-Glo); type: cell-based; details: cell viability, read-out: Cell Killing EC50
Outline: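 Viability read by CellTiter-Glo luminescence after 96 h compound exposure (0.5% DMSO final) of cells plated at 1,000/well in 10% FBS F-12 and allowed 24 h attachment. Four-parameter fits gave EC50; rescue arms used ferrostatin-1, 1.5 μM, present from seeding.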

[2] = biological target: human recombinant GCL (Homo sapiens (Human), UniProt P48506); assay: GCL enzyme profiling assay (ADP-Glo luminescence); type: biochemical; details: human recombinant GCL, ADP-Glo; read-out: GCL IC50
Chain of human recombinant GCL (P48506 whole entry): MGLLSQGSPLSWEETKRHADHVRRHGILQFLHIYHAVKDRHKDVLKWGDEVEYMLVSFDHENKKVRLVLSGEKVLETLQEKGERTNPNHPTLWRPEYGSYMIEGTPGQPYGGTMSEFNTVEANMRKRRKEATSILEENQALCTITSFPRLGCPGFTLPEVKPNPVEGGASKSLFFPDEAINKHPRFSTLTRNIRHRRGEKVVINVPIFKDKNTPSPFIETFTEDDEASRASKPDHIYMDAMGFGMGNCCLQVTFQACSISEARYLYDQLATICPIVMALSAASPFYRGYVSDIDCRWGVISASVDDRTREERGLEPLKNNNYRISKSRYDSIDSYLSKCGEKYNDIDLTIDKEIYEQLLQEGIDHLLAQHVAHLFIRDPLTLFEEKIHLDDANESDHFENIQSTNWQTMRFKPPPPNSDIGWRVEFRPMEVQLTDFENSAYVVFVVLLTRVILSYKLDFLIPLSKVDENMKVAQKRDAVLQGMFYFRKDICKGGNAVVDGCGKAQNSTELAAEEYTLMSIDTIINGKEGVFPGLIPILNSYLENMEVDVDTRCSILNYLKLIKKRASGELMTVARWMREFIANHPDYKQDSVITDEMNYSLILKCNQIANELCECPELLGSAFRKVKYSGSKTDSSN
Outline: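 IC50 fitted by four-parameter logistic to luminescent ADP formation (ADP-Glo). Reaction at room temperature in HEPES pH 7.5 with 30 mM MgCl2, 0.2% F-127, 1% DMSO; 5 nM GCL and 0.6 mM ATP preincubated 1 h before adding 1 mM glutamate plus 1.2 mM α-aminobutyrate for 2 h.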

Row | IC50 [2] | Compound | EC50 [1]
1 | ≤ 20 µM | N=S(=O)(CC[C@H](N)C(=O)O)CCC(O)(c1ccc(-c2ccc(Cl)cc2Cl)cc1F)C(F)(F)F (stereo partly shown) [Compound 450] | < 1000 µM
2 | ≤ 20 µM | CCOc1cccc(-c2ccc(C(O)(CCS(=N)(=O)CC[C@H](N)C(=O)O)C(F)(F)F)cc2)c1 (stereo partly shown) [Compound 451] | < 1000 µM
3 | ≤ 20 µM | Cc1ccc(-c2ccc(C(O)(CCS(=N)(=O)CC[C@H](N)C(=O)O)C(F)(F)F)cc2C#N)cc1 (stereo partly shown) [Compound 452] | ≥ 1000 µM
4 | ≤ 20 µM | N=S(=O)(CC[C@H](N)C(=O)O)CCC(O)(c1ccc(-c2ccc(O)c(F)c2)cc1)C(F)(F)F (stereo partly shown) [Compound 453] | ≥ 1000 µM
5 | ≤ 20 µM | N#Cc1cc(-c2ccc(C(O)(CCS(=N)(=O)CC[C@H](N)C(=O)O)C(F)(F)F)cc2)ccc1O (stereo partly shown) [Compound 454] | ≥ 1000 µM
6 | ≤ 20 µM | Cc1cc(C(O)(CCS(=N)(=O)CC[C@H](N)C(=O)O)C(F)(F)F)ccc1-c1ccc(O)c(F)c1 (stereo partly shown) [Compound 455] | ≥ 1000 µM
7 | ≤ 20 µM | CC(C)(C)c1cc(-c2ccc(C(O)(CCS(=N)(=O)CC[C@H](N)C(=O)O)C(F)(F)F)cc2)ccc1O (stereo partly shown) [Compound 456] | ≥ 1000 µM
8 | ≤ 20 µM | N=S(=O)(CC[C@H](N)C(=O)O)CCC(O)(c1ccc(Cc2ccc(Cl)cc2Cl)cc1)C(F)(F)F (stereo partly shown) [Compound 457] | ≥ 1000 µM
9 | ≤ 20 µM | N=S(=O)(CC[C@H](N)C(=O)O)CCC(O)(c1ccc(-c2ccc(OC(F)(F)F)cc2O)cc1)C(F)(F)F (stereo partly shown) [Compound 458] | < 1000 µM
10 | ≤ 20 µM | N=S(=O)(CC[C@H](N)C(=O)O)CCC(O)(c1ccc(-c2ccccc2)cn1)C(F)(F)F (stereo partly drawn) [Compound 459, (2S)-2-amino-4-(4,4,4-trifluoro-3-hydroxy-3-(5-phenylpyridin-2-yl)butylsulfonimidoyl)butanoic acid] | < 1000 µM
11 | ≤ 20 µM | N[C@@H](CCS(=O)(=O)CCC(O)(c1ccc(-c2ccc(Cl)cc2Cl)cn1)C(F)(F)F)C(=O)O (stereo partly drawn) [Compound 460, (2S)-2-amino-4-[3-[5-(2,4-dichlorophenyl)-2-pyridyl]-4,4,4-trifluoro-3-hydroxy-butyl]sulfonyl-butanoic acid] | < 1000 µM
12 | ≤ 20 µM | N=S(=O)(CC[C@H](N)C(=O)O)CCC(O)(c1ccc(C2CCCC2)cn1)C(F)(F)F (stereo partly drawn) [Compound 461, (2S)-2-amino-4-(3-(5-cyclopentylpyridin-2-yl)-4,4,4-trifluoro-3-hydroxybutylsulfonimidoyl)butanoic acid] | < 1000 µM
13 | ≤ 20 µM | N=S(=O)(CC[C@H](N)C(=O)O)CCC(O)(c1ccc(-c2ccc(Cl)cc2Cl)cn1)C(F)(F)F (stereo partly shown) [Compound 463] | < 1000 µM
14 | 20 to 2000 µM | N[C@@H](CCSCCC(O)(c1ncc(-c2ccc(Cl)cc2Cl)cn1)C(F)(F)F)C(=O)O (stereo partly shown) [Compound 469] | ≥ 1000 µM
15 | 20 to 2000 µM | Cc1cc(F)ccc1-c1cnc(C(O)(CCS(=N)(=O)CC[C@H](N)C(=O)O)C(F)(F)F)nc1 (stereo partly shown) [Compound 473] | < 1000 µM
16 | 20 to 2000 µM | N=S(=O)(CC[C@H](N)C(=O)O)CCC(O)(c1ccc(C2CC2)cn1)C(F)(F)F (stereo partly shown) [Compound 475] | ≥ 1000 µM
17 | ≤ 20 µM | N=S(=O)(CC[C@H](N)C(=O)O)CCC(O)(c1ccc(-c2ccc(F)cc2F)cn1)C(F)(F)F (stereo partly shown) [Compound 477] | < 1000 µM
18 | ≤ 20 µM | Cc1cc(Cl)ccc1-c1ccc(C(O)(CCS(=N)(=O)CC[C@H](N)C(=O)O)C(F)(F)F)nc1 (stereo partly shown) [Compound 478] | < 1000 µM

Row | IC50 [2] | Compound | EC50 [1]
19 | ≤ 20 µM | Cc1cc(F)ccc1-c1ccc(C(O)(CCS(=N)(=O)CC[C@H](N)C(=O)O)C(F)(F)F)nc1 (stereo partly shown) [Compound 479] | < 1000 µM
20 | 20 to 2000 µM | N=S(=O)(CC[C@H](N)C(=O)O)CCC(O)(c1ccc(-c2cnco2)cn1)C(F)(F)F (stereo partly shown) [Compound 480] | ≥ 1000 µM
21 | 20 to 2000 µM | CCCCS(=N)(=O)CC[C@H](N)C(=O)OCC (stereo partly shown) [Compound 482] | ≥ 1000 µM
22 | 20 to 2000 µM | CCCCS(=N)(=O)CC[C@H](N)C(=O)OC(C)(C)C (stereo partly shown) [Compound 483] | ≥ 1000 µM
23 | 20 to 2000 µM | CCC(C)(C)OC(=O)[C@@H](N)CCS(=N)(=O)CCCC(F)(F)F (stereo partly shown) [Compound 484] | < 1000 µM
24 | 20 to 2000 µM | CCCCOC(=O)[C@@H](N)CCS(=N)(=O)CCC(O)(c1ccc(-c2ccc(Cl)cc2Cl)cc1)C(F)(F)F (stereo partly shown) [Compound 485] | < 1000 µM
25 | 20 to 2000 µM | CCOC(=O)[C@@H](N)CC[S@@](=N)(=O)CC[C@@H](O)C(F)(F)F [Compound 486, ethyl (S)-2-amino-4-((R,3R)-4,4,4-trifluoro-3-hydroxybutylsulfonimidoyl)butanoate] | < 1000 µM
26 | 20 to 2000 µM | CCOC(=O)[C@@H](N)CC[S@@](=N)(=O)CC[C@@](C)(O)C(F)(F)F [Compound 487, ethyl (S)-2-amino-4-((R,3R)-4,4,4-trifluoro-3-hydroxy-3-methylbutylsulfonimidoyl)butanoate] | < 1000 µM
27 | 20 to 2000 µM | CCOC(=O)[C@@H](N)CC[S@@](=N)(=O)CC[C@](O)(c1ccccc1)C(F)(F)F [Compound 488, ethyl (S)-2-amino-4-((R,3S)-4,4,4-trifluoro-3-hydroxy-3-phenylbutylsulfonimidoyl)butanoate] | < 1000 µM
28 | > 2000 µM | CC(C)(C)OC(=O)[C@@H](N)CC[S@@](=N)(=O)CC[C@H](O)C(F)(F)F [Compound 489, tert-butyl (S)-2-amino-4-((R,3S)-4,4,4-trifluoro-3-hydroxybutylsulfonimidoyl)butanoate] | ≥ 1000 µM
29 | > 2000 µM | CC(C)(C)OC(=O)[C@@H](N)CC[S@](=N)(=O)CC[C@H](O)C(F)(F)F [Compound 490] | ≥ 1000 µM
30 | 20 to 2000 µM | CC(C)(C)OC(=O)[C@@H](N)CC[S@@](=N)(=O)CC[C@@H](O)C(F)(F)F [Compound 491, tert-butyl (S)-2-amino-4-((R,3R)-4,4,4-trifluoro-3-hydroxybutylsulfonimidoyl)butanoate] | < 1000 µM
31 | > 2000 µM | CC(C)(C)OC(=O)[C@@H](N)CC[S@](=N)(=O)CC[C@@H](O)C(F)(F)F [Compound 492] | ≥ 1000 µM
32 | ≤ 20 µM | N=S(=O)(CC[C@H](N)C(=O)O)CCC(O)(CC(F)(F)F)c1ccc(-c2ccc(Cl)cc2Cl)cc1 (stereo partly drawn) [Compound 494, (2S)-2-amino-4-(3-(2′, 4′-dichloro-[1, 1′-biphenyl]-4-yl)-5,5,5-trifluoro-3-hydroxypentylsulfonimidoyl) butanoic acid] | ≥ 1000 µM
33 | 20 to 2000 µM | N=S(=O)(C/C=C(\CC(F)(F)F)c1ccc(-c2ccc(Cl)cc2Cl)cc1)CC[C@H](N)C(=O)O (stereo partly drawn) [Compound 495, (2S)-2-amino-4-((E)-3-(2′, 4′-dichloro-[1, 1′-biphenyl]-4-yl)-5,5,5-trifluoropent-2-en-1-ylsulfonimidoyl) butanoic acid] | ≥ 1000 µM
34 | 20 to 2000 µM | N[C@H]1CC[S@@](=O)(CC[C@H](O)C(F)(F)F)=NC1=O [Compound 496, (1R,4S)-4-amino-1-((S)-4,4,4-trifluoro-3-hydroxybutyl)-5,6-dihydro-116,2-thiazin-3 (4H)-one 1-oxide] | < 1000 µM
35 | 20 to 2000 µM | CC(O)(CCS(=N)(=O)CC[C@H](N)C(=O)O)C1CCC1 (stereo partly drawn) [Compound 497, (2S)-2-amino-4-(3-cyclobutyl-3-hydroxybutylsulfonimidoyl)butanoic acid] | ≥ 1000 µM
